Target: T1, CS6 protein (coli surface antigen 6; CS6 adhesin) (Escherichia coli, UniProt P53510)
T1 construct: gene cssB; CS6 complex (CssA and CssB structural subunits; operon cssA-cssD, recombinant plasmid pJT-CS6), no tag stated; secreted by E. coli TOP10-CS6, ammonium sulfate precipitate of culture supernatant; 125I-labelled; with CS6 fimbrial subunit A
Assay: microtiter well binding of […]-labelled CS6 to coated glycosphingolipid
Settings: amount of glycosphingolipid coated per well, not a concentration; room temperature, 4 h

T1 sequence (P53508 19-154): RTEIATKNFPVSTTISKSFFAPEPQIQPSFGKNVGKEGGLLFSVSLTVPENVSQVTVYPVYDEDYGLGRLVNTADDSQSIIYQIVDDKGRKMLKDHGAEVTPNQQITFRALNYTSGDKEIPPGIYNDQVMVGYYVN
T1 sequence (P53510 22-167): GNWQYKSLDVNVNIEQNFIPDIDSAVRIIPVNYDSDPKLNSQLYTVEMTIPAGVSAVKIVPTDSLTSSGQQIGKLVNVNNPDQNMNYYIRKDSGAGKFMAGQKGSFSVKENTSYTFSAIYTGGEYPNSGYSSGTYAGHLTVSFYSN

Sulfatide [compound 3]
half-maximal binding: ~ 100 ng

Reference: paper PMC2647841, “Sulfatide Recognition by Colonization Factor Antigen CS6 from Enterotoxigenic Escherichia coli” (PLoS ONE, 2009)
